Assay results taken from patent US20160050932A1, “SYNERGISTIC COMBINATION OF A CHLOROTOLURON COMPOUND AND TERBUTRYN FOR DRY FILM PROTECTION” (Rohm and Haas Company, priority 2013, published 2016).

Experiments:
Chlorella sp. ATCC 7516 = experiment: Algal efficacy testing of dry paint films (modified ASTM 5589, 6-well plates); assay type: cell-based; details: 3 weeks; for % inhibition: at the listed total conc, versus blank sample; for Total conc (lowest concentration passing, pass level ≧75% inhibition): total biocide in acrylic/silicone paint, dry film on filter paper
Experimental: (§1) Slurries containing 33% antimicrobial active ingredient (chlorotoluron) and 45% antimicrobial ingredient terbutryn were post added to a white, acrylic/silicone based outdoor paint free of biocides to give a total active ingredient concentration of 10000 and 1000 ppm respectively. These paints were then diluted with an antimicrobial free acrylic/silicone based paint and mixed to prepare targeted concentrations of antimicrobial compounds for the testing. The total biocides concentrations tested were 125, 250, 500, 1000, 2000 and 5000 ppm. After biocides addition or dilution, the paints were mixed 90 seconds with the horse power shaker (AXEL 75M3372/Agitateur SO-10MI) until uniformity was achieved. Paints containing different antimicrobial compounds at the same levels were mixed together in order to obtain the desired ratio of antimicrobial compounds. After one day, the paints were applied to Schleicher & Schuell filter paper at 280 μm wet film thickness and dried for 3 days at room temperature avoiding direct exposure to sunlight. Square discs (1.6 cm×1.6 cm) were cut out from each panel and were used as the substrate for algal efficacy tests. This sample size allowed for an agar border when the sample disc was placed into the well of the test plate.
(§2) Algal efficacy was tested according to modified ASTM 5589 which is a standard accelerated test method for determining resistance of various coatings (including paints) to algal defacement. To accommodate for high-throughput screening, this method was scaled down from petri dishes to 6-well plates. Bold Modified Basal Freshwater Nutrient Solution was used as growth medium. A single coated filter paper coupon was placed with a pair of sterile forceps at the center of the agar plug (on top) with the painted surface facing upwards. Algal inoculums were prepared by mixing equal concentrations (1×10^6 cfu/ml) and equal volumes of exponentially growing algae cultures.
(§3) Each well that contains a tested coupon was inoculated with 1750 μl of algal suspensions (1×10^6 cfu/ml) making sure that the whole surface (paint film as well as the agar surrounding it) was evenly covered. The plates were incubated at room temp (21° C.-25° C.) with cyclic exposure to light and dark phases, for a period of three weeks. The total area inhibited was evaluated at the end of each week according to percent area covered in 5% increments
(§4) At the end of the three week incubation period, the samples were scored for percent inhibition regarding color intensity compared to the blank sample.
(§5) The SI is calculated based on F. C. Kull et.
(§6) SI value of <1 in the formula indicates a synergism of the blended biocides exists.
(§7) The minimal targeted inhibition was set at 75%, meaning a coupon with at least 75% algal growth inhibition was considered as a pass.

[1] = system: Stichococcus bacillaris SAG 379-1a / CCAP 379/1a; experiment: as above; assay type: cell-based; details: 3 weeks; for % inhibition: at the listed total conc, versus blank sample; for Total conc (lowest concentration passing, pass level ≧75% inhibition): total biocide in acrylic/silicone paint, dry film on filter paper
Experimental: as §1, §2, §3, §4, §5, §6, §7

Structure (SMILES)	% inhibition (Chlorella sp. ATCC 7516)	Total conc (lowest concentration passing, pass level ≧75% inhibition) (Chlorella sp. ATCC 7516)	% inhibition [1]	Total conc (lowest concentration passing, pass level ≧75% inhibition) [1]
Cc1ccc(NC(=O)N(C)C)cc1Cl [Chlorotoluron, N′-(3-chloro-4-methylphenyl)-N,N-dimethylurea]	100%	1000 ppm	90%	500 ppm
CCNc1nc(NC(C)(C)C)nc(SC)n1 [Terbutryn, N^2-tert-butyl-N^4-ethyl-6-methylthio-1,3,5-triazine-2,4-diamine]	90%	500 ppm	80%	2000 ppm
